According to patent US6958350B2, “Chemical compounds” (AstraZeneca AB, priority 2001, dated 2005):

melting point [°C] | SMILES
191 to 217 | O=C(Cc1nnc(Nc2ccccc2)o1)NC1CCN(Cc2ccc(Cl)c(Cl)c2)CC1 [Compound No. 1 of Table I, N-[1-(3,4-Dichlorobenzyl)-piperidin-4-yl]-2-(5-phenylamino-[1,3,4]oxadiazol-2-yl)-acetamide]
191 to 192 | O=C(Cc1csc(Nc2ccccc2)n1)NC1CCN(Cc2ccc(Cl)c(Cl)c2)CC1 [Compound No. 1 of Table V, 2-(2-Anilino-1,3-thiazol-4-yl)-N-[1-(3,4-dichlorobenzyl)piperidin-4-yl]acetamide]
154 to 156 | O=C(CCc1nnc(Nc2ccccc2Cl)o1)NC1CCN(Cc2ccc(Cl)c(Cl)c2)CC1 [Compound No. 6 of Table I, 3-[5-(2-chloro-phenylamino)-[1,3,4]oxadiazol-2-yl]-N-[1-(3,4-dichloro-benzyl)-piperidin-4-yl]-propionamide]
162 to 163 | O=C(CCc1nnc(Nc2ccccc2Cl)o1)NC1CCN(Cc2ccc(F)c(F)c2)CC1 [Compound No. 22 of Table I, 3-[5-(2-chloro-phenylamino)-[1,3,4]oxadiazol-2-yl]-N-[1-(3,4-difluorobenzyl)-piperidin-4-yl]-propionamide]
